From patent US6706517B2, “Method for producing L-amino acids by fermentation” (priority 1999, dated 2004)
Counter-ions that a name gives are not always drawn.

Columns and labels:
Type in all cases: cell-based
Details in all cases: 33° C., 4 days
[1] = test system: Escherichia coli H-9340; assay: Comparative test of growth on agar plate medium containing primaquine or novobiocin, parent strain H-9340
Protocol: (§1) Preparation of an L-histidine-producing mutant strain having resistance to a DNA gyrase inhibitor or an L-histidine-producing mutant strain having both resistance to a DNA gyrase inhibitor and resistance to an aminoquinoline derivative The L-histidine-producing mutant strain H-9340 having resistance to 1,2,4-triazole alanine, which was derived from methionine-requiring Escherichia coli ATCC 21318 was subjected to a mutation treatment with N-methyl-N′-nitro-N-nitrosoguanidine (NTG) (0.2 mg/ml, 30° C., 30 minutes) according to a conventional method and spread on a 1 g/liter noboviocin monosodium salt-containing agar plate medium [0.2% glucose, 0.3% potassium dihydrogen phosphate, 0.6% disodium hydrogen phosphate, 0.01% magnesium sulfate, 0.05% sodium chloride, 0.1% ammonium chloride, 50 mg/liter required nutrient (DL-methionine) and 1.5% agar, pH 7.2].
(§2) Comparative test of growth on agar plate culture medium containing primaquine or novobiocin
The growth of the mutant strains H-9342 and H-9343 obtained in Example 1 was compared with the growth of the parent strain H-9340 on an agar plate medium containing primaquine or novobiocin. […]

[2] = test system: Escherichia coli H-9342; assay: Comparative test of growth on agar plate medium containing primaquine or novobiocin, mutant strain H-9342
Protocol: as §1
The mutant strain was cultured on the agar plate medium at 30° C. for 2 to 6 days, and the growing large colonies were picked up and separated to obtain the strain H-9342.
as §2
(§3) The growth of the mutant strains H-9342 and H-9343 obtained in Example 1 was compared with the growth of the parent strain H-9340 on an agar plate medium containing primaquine or novobiocin.
(§4) Each of the mutant strains, which had been cultured in a natural medium for 24 hours and suspended in physiological saline, was spread at a cell density of 1 to 10 cells/cm^2 on the agar plate medium containing primaquine disodium salt or novobiocin monosodium salt at the same concentration as that at the time of acquisition of each mutant strain, and cultured at 33° C. for 4 days.

[3] = test system: Escherichia coli H-9343; assay: Comparative test of growth on agar plate medium containing primaquine or novobiocin, mutant strain H-9343
Protocol: Furthermore, the obtained colony was subjected to a mutation treatment with NTG (0.2 mg/ml, 30° C., 30 minutes), followed by spreading on an agar plate culture medium containing 150 mg/liter primaquine disodium salt. Culturing was carried out thereon at 30° C. for 2 to 6 days, and growing large colonies were picked up and separated to obtain the strain H-9343. The strains H-9340, H-9342 and H-9343 were deposited on March 9, 1999 with the National Institute of Bioscience and Human-Technology, Agency of Industrial Science and Technology (1-3, Higashi 1-chome, Tsukuba-shi, Ibaraki-ken, Japan) under the Budapest Treaty with accession Nos. FERM BP-6673, FERM BP-6675 and FERM BP-6676, respectively.
as §2, §3, §4

[4] = 1 g/liter novobiocin monosodium salt in agar medium
[5] = 150 mg/liter primaquine disodium salt in agar medium

| SMILES | Growth or non-growth on agar plate medium [1, 4] | Growth or non-growth on agar plate medium [2, 4] | Growth or non-growth on agar plate medium [3, 4] | Growth or non-growth on agar plate medium [1, 5] | Growth or non-growth on agar plate medium [2, 5] | Growth on the primaquine-containing culture medium (in words) ([2]; primaquine-containing agar medium) | Growth or non-growth on agar plate medium [3, 5] |
| --- | --- | --- | --- | --- | --- | --- | --- |
| CO[C@@H]1[C@@H](OC(N)=O)[C@@H](O)[C@H](Oc2ccc3c(O)c(NC(=O)c4ccc(O)c(CC=C(C)C)c4)c(=O)oc3c2C)OC1(C)C [Novobiocin monosodium salt, novobiocin monosodium salt] | − | + | + |  |  |  |  |
| COc1cc(NC(C)CCCN)c2ncccc2c1 (stereo not shown) [Primaquine disodium salt, primaquine disodium salt] |  |  |  | − | − | did not grow | + |
